{"source": "patent US20080096870A1", "about": "“Methods and Materials for Treating Mental Illness” (priority 2004, published 2008)", "key": {"NMDA receptor [1]": {"system": "NMDA receptor", "assay": "NMDA receptor-mediated currents, patch-clamp recording in cultured cerebrocortical neurons", "assay_type": "cell-based, rat", "details": "for effect on NMDA receptor-mediated current: rat cerebrocortical neurons, TTX-containing, Mg2+-free extracellular solution, holding potential −60 mV, concentration-dependent"}, "AMPA/kainate receptor": {"system": "AMPA/kainate receptor", "assay": "AMPA/kainate receptor-mediated mEPSCs, patch-clamp recording in cerebrocortical cultured neurons", "assay_type": "cell-based, rat", "details": "TTX-containing solution, −60 mV, MK-801 10 μM; concentration-dependent", "experimental": "(§1) Neuronal Cultures. Cerebral cortices were dissected from newborn rats and treated with 0.25% trypsin to dissociate the cells. Dissociated cells were resuspended in Dulbecco's Modified Eagle's Medium (DMEM) containing 10% plasma derived horse serum (PDHS) and were plated in poly-L-lysine-coated, 35 mm Nunc plastic tissue culture dishes (3.0×10^6 cells/dish/2ml media). Cultures were maintained in an atmosphere of 5% CO2/95% air.\nElectrophysiological recordings: Voltage- and current-clamp recordings of membrane ionic currents and potentials were conducted by using Axopatch 200B and Axoclamp 1B amplifiers (Axon Instruments, Foster City, Calif.). […]\n(§2) The miniature EPSCs were recorded in TTX-containing (0.3-1 μM), Mg^2+-free (in case of NMDA receptor recording) extracellular solution at Vh=−60 mV. […]\nThe digitized data was analyzed off-line using the Mini-Analysis Program (Synaptosoft, Leonia, N.J.) or the pCLAMP9 (Axon Instruments) (Axon Instruments, Union City, Calif.). […]\nFIG. 3. […] A: Representative traces of AMPA-kainate mEPSCs recorded from a cortical neuron under the following conditions: control; in the presence of 3,5-DBr-L-Phe (100 μM); after washout of 3,5-DBr-L-Phe. AMPA/kainate receptor-mediated currents were recorded in TTX-containing (0.3 μM) extracellular solution at holding membrane potential of −60 mV. […] Data is expressed as mean±SEM of 6-7 cells. […]"}, "glutamate release": {"system": "glutamate release", "assay": "Evoked paired EPSCs (2nd/1st amplitude ratio) in cerebrocortical cultured neuron", "assay_type": "cell-based, rat", "details": "100 μM, Mg2+ 1 mM, Vh −60 mV", "experimental": "as §1\n(§3) Electrophysiological recordings: Voltage- and current-clamp recordings of membrane ionic currents and potentials were conducted by using Axopatch 200B and Axoclamp 1B amplifiers (Axon Instruments, Foster City, Calif.). The perforated nystatin- and gramicidin-based patch-clamp recording techniques were used to reduce nonspecific rundown of intracellular processes. Neurons were used for electrophysiological recordings between 12 and 27 days in vitro. […] Patch microelectrodes were pulled from 1.5 mm borosilicate glass tubing using a two-stage vertical pipette puller (Narishige, East Meadow, N.Y.). […] For rapid application of agonist-containing solutions to neurons, the SF-77B system (Warner Instrument Corp., Hamden, Conn.) was used.\nFIG. 4. […] A: Effect of 3,5-DBr-L-Phe on the evoked EPSCs in rat cerebrocortical cultured neuron. Examples of average EPSCs (20 traces average) in control conditions (open circle), in 3,5-DBr-L-Phe (filled circle). Synaptic responses were evoked by applying two sub-threshold electric stimuli (0.4-1 ms, 50-90 V, 250 ms apart) to an extracellular electrode (a patch electrode filled with the extracellular solution) positioned in the vicinity of the presynaptic neuron. Sweeps were recorded at 10 s intervals. After 20 sweeps, 100 μM 3,5-DBr-L-Phe was added. Neuron was held in whole-cell mode at Vh=−60 mV in Mg^2+ (1 mM) containing extracellular solution. […] The amplitude of the 1st and 2nd EPSCs were measured against the baseline; each point represents an average of five subsequent sweeps. Data expressed as mean±S.E.M. for 7 cells. *, P<0.01 compared to control."}, "AMPA-kainate receptors": {"system": "AMPA-kainate receptors", "assay": "AMPA-activated currents (IAMPA) in cerebrocortical cultured neurons", "assay_type": "cell-based, rat", "details": "for effect on activity of postsynaptic AMPA-kainate receptors (AMPA/kainate receptor function): rat cerebrocortical cultured neurons", "experimental": "as §1, §3\nThe miniature EPSCs were recorded in TTX-containing (0.3-1 μM), Mg^2+-free (in case of NMDA receptor recording) extracellular solution at Vh=−60 mV. In order to isolate the NMDA component of GluR-mediated EPSCs, the non-NMDAR (AMPA/kainate) antagonist NBQX (10-20 μM) was added to extracellular solutions. To isolate the non-NMDAR-mediated EPSCs, the experiments were performed in the presence of NMDAR channel blocker, MK-801 (5-10 μM), or in the presence of the NMDAR antagonist, AP-5 (20 μM). Strychnine (1 μM) and picrotoxin (20 μM) were added to the extracellular solution to block glycine and GABA receptors, respectively. […] The basic extracellular solution contained (in mM): NaCl 140, KCl 4, CaCl2 2, MgCl2 1,4-(2-hydroxyethyl)-1-piperazineethanesulfonic acid (HEPES) 10, and glucose 11. The pH of the extracellular solution was adjusted to 7.4 using NaOH. The main solution for filling the patch electrodes contained (in mM): Cs gluconate 135, NaCl 5, KCl 10, MgCl2 1, CaCl2 1, EGTA 11, HEPES 10, Na2ATP 2, Na2GTP […]. The pH of the intracellular solution was adjusted to 7.4 using CsOH. […]\nC and D: 3,5-DBr-L-Phe depresses AMPA-activated currents (IAMPA) in rat cerebrocortical cultured neurons. Examples of AMPA-activated currents recorded from the same rat cortical neuron before application of 3,5-DBr-L-Phe, during exposure to different concentrations of BrPhe (noted in figure) and after washout of 3,5-DBr-L-Phe (C). […] Data expressed as mean±S.E.M. for 3-5 cells. *, P<0.01 compared to control."}, "GABA receptor": {"system": "GABA receptor", "assay": "GABA receptor-mediated mIPSCs in cerebrocortical cultured neurons", "assay_type": "cell-based, rat", "details": "100 μM; TTX-containing solution, −60 mV", "experimental": "as §1\nElectrophysiological recordings: Voltage- and current-clamp recordings of membrane ionic currents and potentials were conducted by using Axopatch 200B and Axoclamp 1B amplifiers (Axon Instruments, Foster City, Calif.). The perforated nystatin- and gramicidin-based patch-clamp recording techniques were used to reduce nonspecific rundown of intracellular processes. Neurons were used for electrophysiological recordings between 12 and 27 days in vitro. […]\nas §2\nFIG. 5. […] A: Representative GABA receptor-mediated mIPSCs recorded from the same neuron before (control), during (100 μM), and after (wash) application of 3,5-DBr-L-Phe. GABA receptor-mediated mIPSCs were recorded in TTX-containing (0.3 μM) extracellular solution at holding membrane potential of −60 mV. […] Summary data is expressed as mean±SEM of 5 cells."}, "[2]": {"system": "rat cerebrocortical cultured neurons", "assay": "Elicited action potentials, current-clamp in cerebrocortical cultured neurons", "assay_type": "cell-based", "details": "100 μM; inward current pulses 2 ms, 2 nA; 5 of 5 neurons", "experimental": "as §1\nElectrophysiological recordings: Voltage- and current-clamp recordings of membrane ionic currents and potentials were conducted by using Axopatch 200B and Axoclamp 1B amplifiers (Axon Instruments, Foster City, Calif.). The perforated nystatin- and gramicidin-based patch-clamp recording techniques were used to reduce nonspecific rundown of intracellular processes. Neurons were used for electrophysiological recordings between 12 and 27 days in vitro. […] Patch microelectrodes were pulled from 1.5 mm borosilicate glass tubing using a two-stage vertical pipette puller (Narishige, East Meadow, N.Y.). […]\nC: Examples of action potentials elicited by depolarizing the membrane with inward current pulses of 2 ms duration and 2 nA amplitude in control (before application of 3,5-DBr-L-Phe), in the presence of 3,5-DBr-L-Phe (100 μM) and after wash-out of the drug. Similar responses were recorded from 5 of 5 neurons."}, "NMDA receptor [3]": {"system": "NMDA receptor", "details": "see ref. 12 and 13; cited from earlier work"}}}
{"smiles": "N[C@@H](Cc1cc(Br)cc(Br)c1)C(=O)O", "note": "[3,5-DBr-L-Phe, 3,5-dibromo-L-phenylalanine]", "values": [{"measurement": "sensitivity of 3,5-DBr-L-Phe-activated current to NMDA receptor specific antagonists", "setting": "NMDA receptor [1]; 3,5-DBr-L-Phe 100 μM, AP-5 20 μM, 6 neurons", "value": "is blocked by NMDA receptor specific antagonists"}, {"measurement": "dependence of activating effect on NMDA receptor-mediated current on NMDA concentration", "setting": "NMDA receptor [1]; 3,5-DBr-L-Phe 100 μM, NMDA 3-1000 μM, glycine 0.1 μM and 10 μM", "value": "depends on concentration of NMDA in extracellular solution"}, {"measurement": "dependence of activating effect on NMDA receptor-mediated current on glycine concentration", "setting": "NMDA receptor [1]; 3,5-DBr-L-Phe 100 μM, different concentrations of glycine", "value": "does not depend on concentration of glycine"}, {"measurement": "effect on NMDA receptor-mediated current", "setting": "NMDA receptor [1]", "value": "activates"}, {"measurement": "effect on NMDA receptor-mediated current", "setting": "NMDA receptor [1]; listed as 3,5-dibromo-L-Phe", "value": "augment"}, {"measurement": "effect on AMPA/kainate receptor-mediated mEPSCs (frequency and amplitude)", "setting": "AMPA/kainate receptor", "value": "depresses"}, {"measurement": "effect on glutamate release", "setting": "glutamate release", "value": "causes depression"}, {"measurement": "effect on glutamate release", "setting": "glutamate release; listed as 3,5-dibromo-L-Phe", "value": "significantly depresses"}, {"measurement": "effect on AMPA-activated currents (IAMPA)", "setting": "AMPA-kainate receptors; AMPA 3 μM, exposure started 45 s before AMPA, different concentrations", "value": "depresses"}, {"measurement": "effect on activity of postsynaptic AMPA-kainate receptors (AMPA/kainate receptor function)", "setting": "AMPA-kainate receptors", "value": "causes depression"}, {"measurement": "effect on activity of postsynaptic AMPA-kainate receptors (AMPA/kainate receptor function)", "setting": "AMPA-kainate receptors; listed as 3,5-dibromo-L-Phe", "value": "significantly depresses"}, {"measurement": "effect on GABA receptor-mediated mIPSCs (amplitude and frequency)", "setting": "GABA receptor", "value": "does not significantly affect"}, {"measurement": "effect on elicited action potentials", "setting": "[2]", "value": "does not significantly affect"}]}
{"smiles": "N[C@@H](Cc1cccc(Br)c1)C(=O)O", "note": "[3-bromo-L-Phe, 3-bromo-L-phenylalanine]", "values": [{"measurement": "effect on NMDA receptor-mediated current", "setting": "NMDA receptor [1]", "value": "augment"}, {"measurement": "effect on glutamate release", "setting": "glutamate release", "value": "significantly depresses"}, {"measurement": "effect on activity of postsynaptic AMPA-kainate receptors (AMPA/kainate receptor function)", "setting": "AMPA-kainate receptors", "value": "significantly depresses"}]}
{"smiles": "NC(CCCP(=O)(O)O)C(=O)O", "note": "(stereo not drawn) [AP-5, reference compound]", "values": [{"measurement": "effect of antagonist on 3,5-DBr-L-Phe-activated current", "setting": "NMDA receptor [1]; AP-5 20 μM, 3,5-DBr-L-Phe 100 μM", "value": "depression of 3,5-DBr-L-Phe-activated current"}]}
{"smiles": "N[C@@H](Cc1ccccc1)C(=O)O", "note": "[L-Phe, L-Phenylalanine]", "values": [{"measurement": "effect on NMDA receptor activity", "setting": "NMDA receptor [3]", "value": "opposite, depressant, effect"}]}
